Measurements as given in patent US9834537B2, “Compounds as chloride channel blocking agent” (Korea Institute of Science and Technology, priority 2013, dated 2017).

Biological target: calcium ion-activated chloride channel (Xenopus laevis, UniProt B5SVV6)
Assay: Patch clamp method: two-electrode voltage clamp recording on Xenopus laevis eggs, calcium-dependent chloride channel blocking activity
Format: cell-based
Method: Meanwhile, with regard to the novel compound represented by formula 1 according to the present invention, calcium-dependent chloride channel blocking activity was assessed by a patch clamp method according to the following experimental examples. Eggs of African Xenopus laevis were collected through surgical operation, immersed in a Barth's solution [88 mM NaCl, 1 mM KCl, 2.4 mM NaHCO3, 10 mM HEPES, 0.82 mM MgSO4, 0.33 mM Ca(NO3)2, 0.91 mM CaCl2 (all of which were purchased from Sigma Co.); 10 units/mL peniciline, and streptomycin (purchased from Gibco Co.)], and cultured in an incubator at a constant temperature of 18° C. Such prepared eggs were treated using 10 μM ionomycin (Sigma) for 30 minutes. A recording solution (96 mM NaCl, 2 mM KCl, 10 mM HEPES, 3 mM NaOH, 2 mM MgCl2, 0.5 mM EGTA, Sigma) was prepared and the eggs treated with ionomycin were rinsed using the prepared recording solution. Further, the eggs, after treating with 1 μM thapsigargin (Sigma) for 2 hours, were rinsed again using the recording solution to prepare eggs for recording. Next, an intracellular solution was prepared by adding 0.5 mM EGTA and 1 μM chelerythrine (Sigma) to 1 M KCl solution, then, charged in a glass micro-electrode. One of the prepared eggs was placed on a chamber and two micro-electrodes were stuck into both sides of the egg while dripping the recording solution over the egg. According to a protocol corresponding to purposes for experiments, two-electrode voltage clamp recording was executed to measure an electrical current.

[1] = calcium ion-activated chloride channel, Xenopus laevis eggs, two-electrode voltage clamp
[2] = Table 2 upper part, naphthyl compounds of formula 1b (scaffold drawing 37; * = position of naphthyl attachment)

Sequence of calcium ion-activated chloride channel (B5SVV6 entry or part of it): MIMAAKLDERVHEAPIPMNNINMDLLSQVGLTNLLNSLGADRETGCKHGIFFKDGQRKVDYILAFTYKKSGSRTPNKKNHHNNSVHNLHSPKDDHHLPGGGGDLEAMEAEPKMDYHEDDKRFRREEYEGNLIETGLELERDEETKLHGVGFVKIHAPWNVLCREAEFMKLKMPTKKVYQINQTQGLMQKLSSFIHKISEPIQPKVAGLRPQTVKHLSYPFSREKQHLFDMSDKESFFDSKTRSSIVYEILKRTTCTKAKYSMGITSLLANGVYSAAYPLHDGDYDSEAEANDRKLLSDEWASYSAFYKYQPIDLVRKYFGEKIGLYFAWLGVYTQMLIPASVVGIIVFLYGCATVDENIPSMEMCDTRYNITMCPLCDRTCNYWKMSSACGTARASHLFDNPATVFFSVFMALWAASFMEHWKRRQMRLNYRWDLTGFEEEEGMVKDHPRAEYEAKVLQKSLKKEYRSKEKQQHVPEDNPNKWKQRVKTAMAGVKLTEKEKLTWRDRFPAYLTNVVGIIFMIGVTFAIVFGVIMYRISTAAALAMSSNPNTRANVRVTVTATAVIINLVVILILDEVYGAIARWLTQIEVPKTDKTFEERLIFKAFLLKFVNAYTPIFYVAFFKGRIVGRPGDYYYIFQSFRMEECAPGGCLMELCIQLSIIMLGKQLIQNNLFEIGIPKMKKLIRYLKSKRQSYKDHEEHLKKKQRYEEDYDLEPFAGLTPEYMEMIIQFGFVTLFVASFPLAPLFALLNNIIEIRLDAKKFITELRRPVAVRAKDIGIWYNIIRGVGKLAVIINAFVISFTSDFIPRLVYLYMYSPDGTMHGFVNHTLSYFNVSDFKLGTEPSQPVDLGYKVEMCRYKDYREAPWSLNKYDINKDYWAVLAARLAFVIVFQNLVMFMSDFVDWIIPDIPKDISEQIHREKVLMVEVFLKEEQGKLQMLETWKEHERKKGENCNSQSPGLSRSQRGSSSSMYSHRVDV

Row | Molecule | IC50 [1] [µM] | IC50 [2] [µM] | IC50 (Table 2 lower part, comparison phenyl anthranilic acid compounds of Korean Patent Registration No. 892591 (scaffold drawing 38)) [µM]
1 | O=C(O)c1cccc([N+](=O)[O-])c1Nc1ccc(Cl)c2ccccc12 [Compound No. 29, N-((4-chloro)naphthyl)-3-nitroanthranilic acid] | 16.6 |  | 
2 | O=C(O)c1ccc([N+](=O)[O-])cc1Nc1cccc2ccccc12 [Compound No. 31, N-naphthyl-4-nitroanthranilic acid] | 8.5 |  | 
3 | O=C(O)c1ccc([N+](=O)[O-])cc1Nc1ccc(Cl)c2ccccc12 [Compound No. 33, N-((4-chloro)naphthyl)-4-nitroanthranilic acid] | 4.8 | 4.8 | 
4 | O=C(O)c1ccc([N+](=O)[O-])cc1Nc1ccc(Br)c2ccccc12 [Compound No. 34, N-((4-bromo)naphthyl)-4-nitroanthranilic acid] | 10.1 |  | 
5 | O=C(O)c1ccc([N+](=O)[O-])cc1Nc1ccc([N+](=O)[O-])c2ccccc12 [Compound No. 35, N-((4-nitro)naphthyl)-4-nitroanthranilic acid] | 21.6 |  | 
6 | COc1ccc(Nc2cc([N+](=O)[O-])ccc2C(=O)O)c2ccccc12 [Compound No. 36, N-((4-methoxy)naphthyl)-4-nitroanthranilic acid] | 15.2 | 15.2 | 
7 | O=C(O)c1cc([N+](=O)[O-])ccc1Nc1cccc2ccccc12 [Compound No. 40, N-naphthyl-5-nitroanthranilic acid] | 5 | 5 | 
8 | O=C(O)c1cc([N+](=O)[O-])ccc1Nc1ccc(F)c2ccccc12 [Compound No. 41, N-((4-fluoro)naphthyl)-5-nitroanthranilic acid] | 3 |  | 
9 | O=C(O)c1cc([N+](=O)[O-])ccc1Nc1ccc(Cl)c2ccccc12 [Compound No. 42, N-((4-chloro)naphthyl)-5-nitroanthranilic acid] | 8 |  | 
10 | O=C(O)c1cc([N+](=O)[O-])ccc1Nc1ccc(Br)c2ccccc12 [Compound No. 43, N-((4-bromo)naphthyl)-5-nitroanthranilic acid] | 1.5 | 1.5 | 
11 | O=C(O)c1cc([N+](=O)[O-])ccc1Nc1ccc(I)c2ccccc12 [Compound No. 44, N-((4-iodo)naphthyl)-5-nitroanthranilic acid] | 1.2 |  | 
12 | COc1ccc2ccccc2c1Nc1ccc([N+](=O)[O-])cc1C(=O)O [Compound No. 45, N-((2-methoxy)naphthyl)-5-nitroanthranilic acid] | 9.1 | 9.1 | 
13 | COc1cc(Nc2ccc([N+](=O)[O-])cc2C(=O)O)c2ccccc2c1 [Compound No. 46, N-((3-methoxy)naphthyl)-5-nitroanthranilic acid] | 1.8 | 1.8 | 
14 | COc1ccc(Nc2ccc([N+](=O)[O-])cc2C(=O)O)c2ccccc12 [Compound No. 47, N-((4-methoxy)naphthyl)-5-nitroanthranilic acid] | 2.27 | 2.27 | 
15 | COc1cccc2c(Nc3ccc([N+](=O)[O-])cc3C(=O)O)cccc12 [Compound No. 48, N-((5-methoxy)naphthyl)-5-nitroanthranilic acid] | 9.2 | 9.2 | 
16 | COc1ccc2c(Nc3ccc([N+](=O)[O-])cc3C(=O)O)cccc2c1 [Compound No. 49, N-((6-methoxy)naphthyl)-5-nitroanthranilic acid] | 1.14 | 1.14 | 
17 | COc1ccc2cccc(Nc3ccc([N+](=O)[O-])cc3C(=O)O)c2c1 [Compound No. 50, N-((7-methoxy)naphthyl)-5-nitroanthranilic acid] | 3.4 | 3.4 | 
18 | COc1cccc2cccc(Nc3ccc([N+](=O)[O-])cc3C(=O)O)c12 [Compound No. 51, N-((8-methoxy)naphthyl)-5-nitroanthranilic acid] | 8.6 | 8.6 | 
19 | O=C(O)c1ccc(C(F)(F)F)cc1Nc1ccc(Cl)c2ccccc12 [Compound No. 66, N-((4-chloro)naphthyl)-4-trifluoromethylanthranilic acid] | 5.7 |  | 
20 | O=C(O)c1c(Nc2ccc(Br)c3ccccc23)cccc1[N+](=O)[O-] [Compound No. 70, N-((4-bromo)naphthyl)-6-nitroanthranilic acid] | 8.6 |  | 
21 | O=C(O)c1cc([N+](=O)[O-])ccc1Nc1ccccc1 [drawing 38 R1=5-NO2 R3=H, reference compound] |  |  | 42.5
22 | N-naphthyl-3-nitroanthranilic acid [Compound No. 28] | 54 |  | 
23 | N-naphthyl-4-trifluoromethylanthranilic acid [Compound No. 65] | 54 |  | 
